Assay results taken from ChEMBL document CHEMBL3885861, “Open TG-GATES”.

Organism: Rattus norvegicus
Experiment: Open TG-GATES - Regimen: Daily Repeat
Type: toxicity, organism-based, Sprague-Dawley
Design: regimen Daily Repeat, gender Male, age 6 weeks
Settings: in vivo, po, route gavage; for APTT / Bas / Eos / Fbg / Hb / Ht / Lym / MCH / MCHC / MCV / Mono / Neu / PT / Plat / RBC / Ret / WBC: tissue Blood; for KIDNEY_L / KIDNEY_R / KIDNEY_TOTAL: tissue Kidney; for LIVER: tissue Liver; for A/G / ALP / ALT / AST / BUN / CRE / Ca / Cl / DBIL / GLC / IP / K / LDH / Na / PL / RALB / TBIL / TC / TG / TP / gamma-GTP: tissue Plasma
[1] = 100 mg/kg, 72 h, dose level Middle, time 3 day
[2] = 100 mg/kg, […], dose level Middle, time 7 day
[3] = 100 mg/kg, […], dose level Middle, time 14 day
[4] = 100 mg/kg, […], dose level Middle, time 28 day
[5] = 300 mg/kg, 72 h, dose level High, time 3 day
[6] = 300 mg/kg, […], dose level High, time 7 day
[7] = 300 mg/kg, […], dose level High, time 14 day
[8] = 300 mg/kg, […], dose level High, time 28 day

CCOC(=O)C(C)(C)Oc1ccc(Cl)cc1 [CLOFIBRATE]
TERMINAL_BW [1]: 242.5 g
APTT [1]: 18.9 s
Bas [1]: 0%
Eos [1]: 1%
Fbg [1]: 210.8 mg/dL
Hb [1]: 13.4 g/dL
Ht [1]: 38.4%
Lym [1]: 80.2%
MCH [1]: 21.6 pg
MCHC [1]: 35%
MCV [1]: 61.8 fL
Mono [1]: 2.6%
Neu [1]: 15.6%
PT [1]: 12.4 s
Plat [1]: 131.7 x10_4/uL
RBC [1]: 621.6 x10_4/ul
Ret [1]: 4.9%
WBC [1]: 117.6 x10_2/uL
KIDNEY_L [1]: 1.1 g
KIDNEY_R [1]: 1.1 g
KIDNEY_TOTAL [1]: 2.2 g
LIVER [1]: 12.5 g
A/G [1]: 1.7
ALP [1]: 1054.4 IU/L
ALT [1]: 38.2 IU/L
AST [1]: 70.2 IU/L
BUN [1]: 16 mg/dL
CRE [1]: 0.4 mg/dL
Ca [1]: 10.8 mg/dL
Cl [1]: 102.6 meq/L
DBIL [1]: 0.076 mg/dL
GLC [1]: 198.4 mg/dL
IP [1]: 6.3 mg/dL
K [1]: 4 meq/L
LDH [1]: 215 IU/L
Na [1]: 141 meq/L
PL [1]: 120 mg/dL
RALB [1]: 3.4 g/dL
TBIL [1]: 0.1 mg/dL
TC [1]: 55.6 mg/dL
TG [1]: 82.4 mg/dL
TP [1]: 5.4 g/dL
gamma-GTP [1]: 0.6 IU/L
TERMINAL_BW [2]: 270.9 g
TERMINAL_BW [3]: 321.6 g
TERMINAL_BW [4]: 398.1 g
APTT [2]: 22.7 s
Bas [2]: 0%
Eos [2]: 1%
Fbg [2]: 200.6 mg/dL
Hb [2]: 14 g/dL
Ht [2]: 40%
Lym [2]: 79.2%
MCH [2]: 21.2 pg
MCHC [2]: 35.1%
MCV [2]: 60.5 fL
Mono [2]: 3%
Neu [2]: 16.6%
PT [2]: 12.4 s
Plat [2]: 132.4 x10_4/uL
RBC [2]: 660.6 x10_4/ul
Ret [2]: 4.9%
WBC [2]: 99.6 x10_2/uL
APTT [3]: 20.3 s
Bas [3]: 0%
Eos [3]: 1%
Fbg [3]: 204.2 mg/dL
Hb [3]: 13.6 g/dL
Ht [3]: 39.5%
Lym [3]: 81.8%
MCH [3]: 20 pg
MCHC [3]: 34.3%
MCV [3]: 58.2 fL
Mono [3]: 2.6%
Neu [3]: 14.2%
PT [3]: 12.7 s
Plat [3]: 130.4 x10_4/uL
RBC [3]: 679 x10_4/ul
Ret [3]: 4.2%
WBC [3]: 153.1 x10_2/uL
APTT [4]: 21.7 s
Bas [4]: 0%
Eos [4]: 1.2%
Fbg [4]: 211.2 mg/dL
Hb [4]: 14.7 g/dL
Ht [4]: 41.8%
Lym [4]: 83.8%
MCH [4]: 19.1 pg
MCHC [4]: 35.1%
MCV [4]: 54.3 fL
Mono [4]: 2%
Neu [4]: 12.8%
PT [4]: 12.1 s
Plat [4]: 110.4 x10_4/uL
RBC [4]: 769.4 x10_4/ul
Ret [4]: 2.1%
WBC [4]: 141.2 x10_2/uL
KIDNEY_L [2]: 1.1 g
KIDNEY_R [2]: 1.2 g
KIDNEY_TOTAL [2]: 2.3 g
KIDNEY_L [3]: 1.3 g
KIDNEY_R [3]: 1.3 g
KIDNEY_TOTAL [3]: 2.6 g
KIDNEY_L [4]: 1.5 g
KIDNEY_R [4]: 1.5 g
KIDNEY_TOTAL [4]: 3 g
LIVER [2]: 14.5 g
LIVER [3]: 17 g
LIVER [4]: 20.1 g
A/G [2]: 1.9
ALP [2]: 856.8 IU/L
ALT [2]: 32.8 IU/L
AST [2]: 61 IU/L
BUN [2]: 16.8 mg/dL
CRE [2]: 0.4 mg/dL
Ca [2]: 10.4 mg/dL
Cl [2]: 102.8 meq/L
DBIL [2]: 0.07 mg/dL
GLC [2]: 211.2 mg/dL
IP [2]: 7.3 mg/dL
K [2]: 3.5 meq/L
LDH [2]: 207.2 IU/L
Na [2]: 141 meq/L
PL [2]: 108.8 mg/dL
RALB [2]: 3.7 g/dL
TBIL [2]: 0.1 mg/dL
TC [2]: 49.8 mg/dL
TG [2]: 53.4 mg/dL
TP [2]: 5.6 g/dL
gamma-GTP [2]: 1 IU/L
A/G [3]: 1.7
ALP [3]: 933 IU/L
ALT [3]: 38.4 IU/L
AST [3]: 63.4 IU/L
BUN [3]: 16.4 mg/dL
CRE [3]: 0.4 mg/dL
Ca [3]: 10.2 mg/dL
Cl [3]: 101.8 meq/L
DBIL [3]: 0.06 mg/dL
GLC [3]: 223.8 mg/dL
IP [3]: 6.1 mg/dL
K [3]: 3.8 meq/L
LDH [3]: 183.8 IU/L
Na [3]: 140.4 meq/L
PL [3]: 120.2 mg/dL
RALB [3]: 3.5 g/dL
TBIL [3]: 0.1 mg/dL
TC [3]: 55 mg/dL
TG [3]: 63.4 mg/dL
TP [3]: 5.6 g/dL
gamma-GTP [3]: 1 IU/L
A/G [4]: 1.7
ALP [4]: 726.6 IU/L
ALT [4]: 38.2 IU/L
AST [4]: 71 IU/L
BUN [4]: 15.8 mg/dL
CRE [4]: 0.4 mg/dL
Ca [4]: 10.5 mg/dL
Cl [4]: 102.4 meq/L
DBIL [4]: 0.08 mg/dL
GLC [4]: 208.6 mg/dL
IP [4]: 6.1 mg/dL
K [4]: 3.6 meq/L
LDH [4]: 236.8 IU/L
Na [4]: 141 meq/L
PL [4]: 132 mg/dL
RALB [4]: 3.8 g/dL
TBIL [4]: 0.1 mg/dL
TC [4]: 54.8 mg/dL
TG [4]: 106.2 mg/dL
TP [4]: 6 g/dL
gamma-GTP [4]: 1 IU/L
TERMINAL_BW [5]: 242 g
APTT [5]: 20.5 s
Bas [5]: 0%
Eos [5]: 1%
Fbg [5]: 199.2 mg/dL
Hb [5]: 13.2 g/dL
Ht [5]: 37.7%
Lym [5]: 73.8%
MCH [5]: 21 pg
MCHC [5]: 34.9%
MCV [5]: 60.3 fL
Mono [5]: 3.2%
Neu [5]: 21.8%
PT [5]: 12.3 s
Plat [5]: 125.3 x10_4/uL
RBC [5]: 625.4 x10_4/ul
Ret [5]: 3.9%
WBC [5]: 91.3 x10_2/uL
KIDNEY_L [5]: 1.1 g
KIDNEY_R [5]: 1.1 g
KIDNEY_TOTAL [5]: 2.2 g
LIVER [5]: 14.9 g
A/G [5]: 1.9
ALP [5]: 928.8 IU/L
ALT [5]: 42 IU/L
AST [5]: 70.2 IU/L
BUN [5]: 14.2 mg/dL
CRE [5]: 0.4 mg/dL
Ca [5]: 10.6 mg/dL
Cl [5]: 101.8 meq/L
DBIL [5]: 0.06 mg/dL
GLC [5]: 200.4 mg/dL
IP [5]: 5.9 mg/dL
K [5]: 3.9 meq/L
LDH [5]: 220.2 IU/L
Na [5]: 140.6 meq/L
PL [5]: 102.2 mg/dL
RALB [5]: 3.5 g/dL
TBIL [5]: 0.1 mg/dL
TC [5]: 43.6 mg/dL
TG [5]: 46.6 mg/dL
TP [5]: 5.3 g/dL
gamma-GTP [5]: 0.8 IU/L
TERMINAL_BW [6]: 267.7 g
TERMINAL_BW [7]: 303.4 g
TERMINAL_BW [8]: 368.7 g
APTT [6]: 21.4 s
Bas [6]: 0%
Eos [6]: 0.6%
Fbg [6]: 212.8 mg/dL
Hb [6]: 13.3 g/dL
Ht [6]: 38.9%
Lym [6]: 81.4%
MCH [6]: 20.9 pg
MCHC [6]: 34.3%
MCV [6]: 61.1 fL
Mono [6]: 3.2%
Neu [6]: 14.4%
PT [6]: 12.3 s
Plat [6]: 132.7 x10_4/uL
RBC [6]: 639.6 x10_4/ul
Ret [6]: 5.1%
WBC [6]: 129.1 x10_2/uL
APTT [7]: 21.9 s
Bas [7]: 0%
Eos [7]: 0.6%
Fbg [7]: 187.4 mg/dL
Hb [7]: 13.6 g/dL
Ht [7]: 39.6%
Lym [7]: 78.8%
MCH [7]: 19.9 pg
MCHC [7]: 34.4%
MCV [7]: 57.8 fL
Mono [7]: 3.4%
Neu [7]: 16.8%
PT [7]: 12.5 s
Plat [7]: 115.9 x10_4/uL
RBC [7]: 684.8 x10_4/ul
Ret [7]: 3.9%
WBC [7]: 125.1 x10_2/uL
APTT [8]: 22 s
Bas [8]: 0%
Eos [8]: 1%
Fbg [8]: 187.6 mg/dL
Hb [8]: 14.6 g/dL
Ht [8]: 41.5%
Lym [8]: 80.2%
MCH [8]: 19.1 pg
MCHC [8]: 35.1%
MCV [8]: 54.4 fL
Mono [8]: 3.4%
Neu [8]: 15.2%
PT [8]: 12.3 s
Plat [8]: 109.1 x10_4/uL
RBC [8]: 762.4 x10_4/ul
Ret [8]: 2%
WBC [8]: 121.5 x10_2/uL
KIDNEY_L [6]: 1.1 g
KIDNEY_R [6]: 1.2 g
KIDNEY_TOTAL [6]: 2.3 g
KIDNEY_L [7]: 1.3 g
KIDNEY_R [7]: 1.3 g
KIDNEY_TOTAL [7]: 2.6 g
KIDNEY_L [8]: 1.5 g
KIDNEY_R [8]: 1.6 g
KIDNEY_TOTAL [8]: 3.1 g
LIVER [6]: 18 g
LIVER [7]: 19.3 g
LIVER [8]: 21.8 g
A/G [6]: 2.1
ALP [6]: 1006.8 IU/L
ALT [6]: 31.4 IU/L
AST [6]: 62.8 IU/L
BUN [6]: 17.2 mg/dL
CRE [6]: 0.4 mg/dL
Ca [6]: 10.7 mg/dL
Cl [6]: 102 meq/L
DBIL [6]: 0.058 mg/dL
GLC [6]: 214.2 mg/dL
IP [6]: 7.4 mg/dL
K [6]: 3.5 meq/L
LDH [6]: 285 IU/L
Na [6]: 141.2 meq/L
PL [6]: 92.2 mg/dL
RALB [6]: 4 g/dL
TBIL [6]: 0.1 mg/dL
TC [6]: 37.6 mg/dL
TG [6]: 44.2 mg/dL
TP [6]: 5.9 g/dL
gamma-GTP [6]: 1 IU/L
A/G [7]: 2.2
ALP [7]: 750.6 IU/L
ALT [7]: 41.8 IU/L
AST [7]: 59.6 IU/L
BUN [7]: 17.6 mg/dL
CRE [7]: 0.4 mg/dL
Ca [7]: 10.5 mg/dL
Cl [7]: 101.4 meq/L
DBIL [7]: 0.062 mg/dL
GLC [7]: 228.2 mg/dL
IP [7]: 6.1 mg/dL
K [7]: 3.8 meq/L
LDH [7]: 172 IU/L
Na [7]: 140.4 meq/L
PL [7]: 113.2 mg/dL
RALB [7]: 4 g/dL
TBIL [7]: 0.1 mg/dL
TC [7]: 44 mg/dL
TG [7]: 46.4 mg/dL
TP [7]: 5.9 g/dL
gamma-GTP [7]: 0.8 IU/L
A/G [8]: 1.9
ALP [8]: 787 IU/L
ALT [8]: 43.4 IU/L
AST [8]: 70.8 IU/L
BUN [8]: 15.4 mg/dL
CRE [8]: 0.4 mg/dL
Ca [8]: 10.2 mg/dL
Cl [8]: 101.8 meq/L
DBIL [8]: 0.068 mg/dL
GLC [8]: 190 mg/dL
IP [8]: 5.1 mg/dL
K [8]: 3.6 meq/L
LDH [8]: 208.6 IU/L
Na [8]: 140.4 meq/L
PL [8]: 120.6 mg/dL
RALB [8]: 4 g/dL
TBIL [8]: 0.1 mg/dL
TC [8]: 46 mg/dL
TG [8]: 47.6 mg/dL
TP [8]: 6.1 g/dL
gamma-GTP [8]: 0.6 IU/L
